Data from the NIST ThermoML archive (doi:10.1021/acs.jced.6b00139).
Numbers after ± are expanded uncertainties.

Settings: Liquid, Ebulliometric method (Recirculating still)

vapor or sublimation pressure (388.15 K): 153.7 ± 1 kPa
vapor or sublimation pressure (398.15 K): 200.6 ± 1 kPa
Compound: O=CO [formic acid]
